For 2 compounds, inhibition results are on record in EP4467141A1, “PYRAZOLO-QUINOLINES AS SELECTIVE INHIBITORS OF GENOTOXIC STRESS-INDUCED IKK/NF- KB PATHWAYS FOR CANCER THERAPY” (Max-Delbrück-Centrum für Molekulare Medizin in der …, priority 2023, dated 2024).

Holding throughout (assay): Kinase panel study
Assay type in all cases: biochemical
Holding throughout (conditions): read-out: Percentage of inhibition; for inhibition at 1 µM: 1000nM; for inhibition at 10 µM: 10000nM

One experiment has as its target T1, PRKD2 (PKD2) (Homo sapiens, UniProt Q9BZL6).
T1 construct: purchased Thermo Fisher Scientific
T1 sequence (Q9BZL6 1-878): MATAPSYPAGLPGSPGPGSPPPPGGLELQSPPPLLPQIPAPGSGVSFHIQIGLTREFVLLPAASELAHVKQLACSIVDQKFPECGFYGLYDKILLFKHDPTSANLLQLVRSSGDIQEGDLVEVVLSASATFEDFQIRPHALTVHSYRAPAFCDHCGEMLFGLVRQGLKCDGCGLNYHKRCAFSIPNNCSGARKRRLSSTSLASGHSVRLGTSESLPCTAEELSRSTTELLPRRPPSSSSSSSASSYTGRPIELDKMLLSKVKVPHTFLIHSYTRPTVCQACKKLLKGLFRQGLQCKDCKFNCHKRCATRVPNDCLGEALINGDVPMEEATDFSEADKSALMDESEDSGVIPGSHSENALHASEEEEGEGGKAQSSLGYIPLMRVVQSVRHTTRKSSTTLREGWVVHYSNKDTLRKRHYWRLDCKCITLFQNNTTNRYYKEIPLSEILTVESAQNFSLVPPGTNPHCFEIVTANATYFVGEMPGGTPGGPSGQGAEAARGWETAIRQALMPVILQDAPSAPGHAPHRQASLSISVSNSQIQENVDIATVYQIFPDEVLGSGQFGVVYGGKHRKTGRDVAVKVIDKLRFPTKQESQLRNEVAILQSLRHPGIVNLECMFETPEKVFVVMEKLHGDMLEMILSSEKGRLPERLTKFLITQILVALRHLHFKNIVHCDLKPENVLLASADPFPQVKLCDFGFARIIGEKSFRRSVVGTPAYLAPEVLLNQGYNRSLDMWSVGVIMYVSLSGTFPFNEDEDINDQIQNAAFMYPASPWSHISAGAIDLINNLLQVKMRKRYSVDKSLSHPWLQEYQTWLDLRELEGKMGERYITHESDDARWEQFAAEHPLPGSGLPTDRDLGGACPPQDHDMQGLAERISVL
In outline: (§1)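 Lead compounds and derivatives were profiled by ZLyte or Adapta in vitro kinase assays. Each value reports inhibition percentage at one of two concentrations, 1 µM or 10 µM.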

Another experiment addresses T2, JAK2 (Homo sapiens, UniProt O60674).
T2 construct: purchased Thermo Fisher Scientific
Summed up: as §1

Another experiment concerns the target T3, EPHB2 (Homo sapiens, UniProt P29323).
T3 construct: purchased Thermo Fisher Scientific
T3 sequence (P29323 19-1055): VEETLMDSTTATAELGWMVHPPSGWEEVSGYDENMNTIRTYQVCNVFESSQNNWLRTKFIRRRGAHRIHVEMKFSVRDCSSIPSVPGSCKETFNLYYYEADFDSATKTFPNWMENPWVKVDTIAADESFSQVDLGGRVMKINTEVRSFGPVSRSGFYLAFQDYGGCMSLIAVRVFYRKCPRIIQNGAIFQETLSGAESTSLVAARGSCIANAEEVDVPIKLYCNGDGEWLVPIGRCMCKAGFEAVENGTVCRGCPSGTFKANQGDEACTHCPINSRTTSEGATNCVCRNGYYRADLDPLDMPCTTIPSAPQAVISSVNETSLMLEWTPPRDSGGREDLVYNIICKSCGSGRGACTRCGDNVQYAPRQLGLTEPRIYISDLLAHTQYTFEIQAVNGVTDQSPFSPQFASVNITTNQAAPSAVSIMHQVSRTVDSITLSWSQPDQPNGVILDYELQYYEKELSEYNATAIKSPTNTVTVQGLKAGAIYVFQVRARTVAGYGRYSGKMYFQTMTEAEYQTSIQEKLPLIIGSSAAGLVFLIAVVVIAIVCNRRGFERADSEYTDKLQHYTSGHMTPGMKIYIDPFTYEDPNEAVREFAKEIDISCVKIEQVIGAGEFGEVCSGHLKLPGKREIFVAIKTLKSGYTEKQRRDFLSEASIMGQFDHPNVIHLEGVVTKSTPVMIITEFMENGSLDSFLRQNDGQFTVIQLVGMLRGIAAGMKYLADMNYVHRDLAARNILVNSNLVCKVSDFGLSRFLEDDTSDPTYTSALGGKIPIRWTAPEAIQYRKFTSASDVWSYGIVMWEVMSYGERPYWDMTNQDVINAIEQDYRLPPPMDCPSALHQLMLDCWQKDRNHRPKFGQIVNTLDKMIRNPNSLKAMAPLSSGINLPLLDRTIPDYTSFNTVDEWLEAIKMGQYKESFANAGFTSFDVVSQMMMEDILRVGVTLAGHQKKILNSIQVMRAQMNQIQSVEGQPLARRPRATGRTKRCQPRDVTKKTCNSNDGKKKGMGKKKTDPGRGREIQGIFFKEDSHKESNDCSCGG
Summed up:
as §1

T2 sequence (O60674 whole entry): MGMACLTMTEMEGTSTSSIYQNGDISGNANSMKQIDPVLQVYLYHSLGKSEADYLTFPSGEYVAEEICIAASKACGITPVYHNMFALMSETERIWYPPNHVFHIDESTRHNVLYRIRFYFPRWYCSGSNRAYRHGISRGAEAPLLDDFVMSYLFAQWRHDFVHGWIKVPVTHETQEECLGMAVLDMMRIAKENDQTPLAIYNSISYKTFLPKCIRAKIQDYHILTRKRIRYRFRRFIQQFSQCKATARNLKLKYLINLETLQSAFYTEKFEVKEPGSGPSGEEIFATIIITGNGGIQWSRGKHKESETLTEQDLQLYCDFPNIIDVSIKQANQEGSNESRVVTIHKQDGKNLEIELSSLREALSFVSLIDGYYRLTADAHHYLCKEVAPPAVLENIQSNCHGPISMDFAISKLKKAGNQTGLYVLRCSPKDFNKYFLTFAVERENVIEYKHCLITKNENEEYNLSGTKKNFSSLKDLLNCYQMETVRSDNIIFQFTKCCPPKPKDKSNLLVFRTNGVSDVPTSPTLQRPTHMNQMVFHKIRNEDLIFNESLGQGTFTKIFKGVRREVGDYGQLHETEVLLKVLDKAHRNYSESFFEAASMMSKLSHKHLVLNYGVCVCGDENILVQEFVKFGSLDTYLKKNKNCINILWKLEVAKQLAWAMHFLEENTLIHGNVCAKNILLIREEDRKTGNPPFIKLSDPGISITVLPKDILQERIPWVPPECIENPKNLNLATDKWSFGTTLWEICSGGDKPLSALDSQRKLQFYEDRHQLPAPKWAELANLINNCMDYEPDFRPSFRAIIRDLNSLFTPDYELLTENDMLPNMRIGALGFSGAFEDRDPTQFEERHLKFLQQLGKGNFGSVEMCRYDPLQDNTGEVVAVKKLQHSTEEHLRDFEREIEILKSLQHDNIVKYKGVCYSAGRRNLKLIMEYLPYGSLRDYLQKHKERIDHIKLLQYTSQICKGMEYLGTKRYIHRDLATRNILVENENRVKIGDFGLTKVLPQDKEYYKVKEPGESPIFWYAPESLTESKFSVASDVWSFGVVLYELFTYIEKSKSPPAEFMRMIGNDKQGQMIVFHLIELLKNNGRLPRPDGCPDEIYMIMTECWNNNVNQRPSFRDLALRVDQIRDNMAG

For `COc1ccc2c(c1OC)c(=O)n1c3ccc(O)cc3c3ccnc2c31` [MW01, 5-Hydroxy-10,11-dimethoxy-9H-benzo[c]indolo[3,2,1-ij][1,5]naphthyridin-9-one], the inhibition at 1 µM on PRKD2 (PKD2) was 38%; on JAK2 it was 15%; on EPHB2 it was 10%. Also, the inhibition at 10 µM on PRKD2 (PKD2) was 71%; on JAK2, 48%; at EPHB2, 17%.
With `COc1ccc2cc3c(N)nn(C(=O)c4cccc(N(C)C)c4)c3nc2c1` [MW05, (3-Amino-7-methoxypyrazolo[3,4-b]quinolin-1-yl)-[3-(dimethylamino)phenyl]methanone], the inhibition at 1 µM was 11% at PRKD2 (PKD2), -3% on JAK2 and 6% at EPHB2. Besides, the inhibition at 10 µM on PRKD2 (PKD2) was 10%; at JAK2, -20%; at EPHB2, 1%.
